Laboratory results taken from article PMC10746543, “Design principles for cyclin K molecular glue degraders” (Nature Chemical Biology, 2023).
Several values for one entry are separate records, joined by “and”; a condition that tells them apart may be missing. Identical values can stand only once. Like-named read-outs stand apart in the source and are kept apart here. Values belong to the compound of their own block, whether it stands above or below them.

What was measured:
CDK12–cyclin K and DDB1 = biological target: T1, CDK12–cyclin K and DDB1 (Homo sapiens, UniProt Q16531+Q9NYV4, K965R); experiment: TR-FRET ternary complex formation assay (compound titration); type: binding
T1 construct: His6–CDK12 (a.a. 713–1,052); full-length or beta-propeller B domain deletion (ΔBPB: a.a. 396–705 deleted) constructs of His6–DDB1ΔBPB, StrepII–Avi–DDB1, or His6–Spy–DDB1; made in house; host or cells: Trichoplusia ni High Five insect cells (baculovirus)
Description: A 70 μs delay was employed to reduce background fluorescence. The TR-FRET signal was obtained through calculating the ratio of 520 nm to 490 nm fluorescence, and Prism 9 (GraphPad) was used for further data analysis.

CDK9–cyclin T = biological target: T2, CDK9–cyclin T (Homo sapiens, UniProt P50750); experiment: Lanthascreen kinase binding assay, CDK9; details: for Lanthascreen TR-FRET signal (raw ratio), sheet CDK9: first titration set (r1), duplicates
T2 construct: purchased Thermo Fisher
Procedure: (§1) Lanthascreen experiments were performed using commercially available reagents (Thermo Fisher) and according to the manufacturer’s instructions.

CDK12–cyclin K = CDK12–cyclin K (Homo sapiens, UniProt Q9NYV4); experiment: Lanthascreen kinase binding assay, CDK12; details: for Lanthascreen raw signal, sheet CDK12: series r1, duplicates
Procedure: as §1

CDK2–cyclin A = biological target: T3, CDK2–cyclin A (Homo sapiens, UniProt P24941); experiment: Lanthascreen kinase binding assay, CDK2; details: for Lanthascreen signal, sheet CDK2: raw replicates, experiment r1-r11
T3 construct: purchased Thermo Fisher
Procedure: as §1

HEK293T cells = experiment: Drug sensitivity assay (CellTiter-Glo viability) with or without MLN4924 pretreatment; type: cell-based, human; details: Supplementary Table 2
Procedure: HEK293T–Cas9 cells were resuspended at 0.15 × 10^6 ml^−1 treated with DMSO or 100 nM MLN4924 and plated on 384-well plates. After 2 h, the indicated drugs were dispensed with a D300 digital dispenser (Tecan). After 3 days of drug exposure, cell viability was assessed using the CellTiter-Glo luminescent assay (Promega, G7572) on an CLARIOstar Plus, MARS 3.4 (BMG LabTech). Cell viabilities were calculated relative to DMSO controls.

[1] = tested on: cyclin K–eGFP degradation reporter; experiment: Cyclin K reporter stability analysis (dual-color cyclin K–eGFP reporter); type: cell-based, human; details: Supplementary Table 2; HEK293T cycK-eGFP reporter, 5 h; read-out: Cellular assays DC50
Procedure: HEK293T–Cas9 cells expressing the cyclin K–eGFP degradation reporter were resuspended at 1 × 10^6 ml^−1 and 50 µl of cell suspension was seeded in non-cell-culture-treated 384-well plates. Shortly after, cells were treated with drug or DMSO for 5 h. […] The fluorescent signal was quantified by flow cytometry (LSRFortessa flow cytometer, BD Biosciences). Using FlowJo (flow cytometry analysis software, BD Biosciences), the geometric mean of the eGFP and mCherry fluorescent signal for round and mCherry-positive cells was calculated. The ratio of eGFP to mCherry was normalized to the average of three DMSO-treated controls.

T2 sequence (P50750 whole entry): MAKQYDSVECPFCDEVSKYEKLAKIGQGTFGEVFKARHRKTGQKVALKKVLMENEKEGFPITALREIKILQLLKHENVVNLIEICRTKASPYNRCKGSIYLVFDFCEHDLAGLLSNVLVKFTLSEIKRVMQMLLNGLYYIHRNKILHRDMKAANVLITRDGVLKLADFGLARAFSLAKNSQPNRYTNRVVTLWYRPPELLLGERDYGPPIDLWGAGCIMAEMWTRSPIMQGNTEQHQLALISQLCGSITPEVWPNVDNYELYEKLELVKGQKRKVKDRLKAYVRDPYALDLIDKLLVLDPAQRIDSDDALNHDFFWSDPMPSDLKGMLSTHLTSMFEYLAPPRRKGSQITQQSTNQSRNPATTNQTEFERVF
T2 sequence (O60563 whole entry partner): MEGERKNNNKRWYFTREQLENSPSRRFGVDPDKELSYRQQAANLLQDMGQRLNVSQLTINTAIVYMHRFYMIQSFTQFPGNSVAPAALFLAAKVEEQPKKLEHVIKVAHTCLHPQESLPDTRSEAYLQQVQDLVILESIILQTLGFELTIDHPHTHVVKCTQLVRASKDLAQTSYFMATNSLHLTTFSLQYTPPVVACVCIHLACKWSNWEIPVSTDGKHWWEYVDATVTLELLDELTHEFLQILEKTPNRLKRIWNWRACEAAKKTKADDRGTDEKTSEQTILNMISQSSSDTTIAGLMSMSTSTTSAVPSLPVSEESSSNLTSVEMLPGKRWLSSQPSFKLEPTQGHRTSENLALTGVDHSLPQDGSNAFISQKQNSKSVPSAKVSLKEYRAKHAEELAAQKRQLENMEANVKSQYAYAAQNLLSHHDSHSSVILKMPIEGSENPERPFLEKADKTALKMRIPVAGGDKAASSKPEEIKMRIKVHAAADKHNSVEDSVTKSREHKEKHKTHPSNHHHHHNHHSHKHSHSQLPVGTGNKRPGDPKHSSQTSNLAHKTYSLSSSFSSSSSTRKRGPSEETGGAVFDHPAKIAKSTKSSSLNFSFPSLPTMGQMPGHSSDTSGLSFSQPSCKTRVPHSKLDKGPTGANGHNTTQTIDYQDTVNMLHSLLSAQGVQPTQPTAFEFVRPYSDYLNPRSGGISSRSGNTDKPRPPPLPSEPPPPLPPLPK
T1 sequence (Q9NYV4 713-1052 K965R): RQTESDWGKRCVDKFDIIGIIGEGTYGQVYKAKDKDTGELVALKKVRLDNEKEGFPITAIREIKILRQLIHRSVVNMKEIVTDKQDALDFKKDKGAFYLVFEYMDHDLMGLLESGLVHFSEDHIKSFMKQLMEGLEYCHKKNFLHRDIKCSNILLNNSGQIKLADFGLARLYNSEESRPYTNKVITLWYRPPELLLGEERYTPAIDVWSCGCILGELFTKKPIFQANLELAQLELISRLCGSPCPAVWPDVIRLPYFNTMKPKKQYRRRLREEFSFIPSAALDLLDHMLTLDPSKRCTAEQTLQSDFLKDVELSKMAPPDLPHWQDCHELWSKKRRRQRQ
T1 sequence (O75909 1-267 partner): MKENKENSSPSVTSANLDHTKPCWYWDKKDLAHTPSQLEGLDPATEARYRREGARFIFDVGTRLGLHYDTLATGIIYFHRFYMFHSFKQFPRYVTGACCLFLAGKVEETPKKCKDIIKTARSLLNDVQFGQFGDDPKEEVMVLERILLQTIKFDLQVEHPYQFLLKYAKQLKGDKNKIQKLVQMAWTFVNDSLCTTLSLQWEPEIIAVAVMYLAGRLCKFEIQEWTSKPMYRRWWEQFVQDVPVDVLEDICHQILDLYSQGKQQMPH
T1 sequence (Q16531 whole entry): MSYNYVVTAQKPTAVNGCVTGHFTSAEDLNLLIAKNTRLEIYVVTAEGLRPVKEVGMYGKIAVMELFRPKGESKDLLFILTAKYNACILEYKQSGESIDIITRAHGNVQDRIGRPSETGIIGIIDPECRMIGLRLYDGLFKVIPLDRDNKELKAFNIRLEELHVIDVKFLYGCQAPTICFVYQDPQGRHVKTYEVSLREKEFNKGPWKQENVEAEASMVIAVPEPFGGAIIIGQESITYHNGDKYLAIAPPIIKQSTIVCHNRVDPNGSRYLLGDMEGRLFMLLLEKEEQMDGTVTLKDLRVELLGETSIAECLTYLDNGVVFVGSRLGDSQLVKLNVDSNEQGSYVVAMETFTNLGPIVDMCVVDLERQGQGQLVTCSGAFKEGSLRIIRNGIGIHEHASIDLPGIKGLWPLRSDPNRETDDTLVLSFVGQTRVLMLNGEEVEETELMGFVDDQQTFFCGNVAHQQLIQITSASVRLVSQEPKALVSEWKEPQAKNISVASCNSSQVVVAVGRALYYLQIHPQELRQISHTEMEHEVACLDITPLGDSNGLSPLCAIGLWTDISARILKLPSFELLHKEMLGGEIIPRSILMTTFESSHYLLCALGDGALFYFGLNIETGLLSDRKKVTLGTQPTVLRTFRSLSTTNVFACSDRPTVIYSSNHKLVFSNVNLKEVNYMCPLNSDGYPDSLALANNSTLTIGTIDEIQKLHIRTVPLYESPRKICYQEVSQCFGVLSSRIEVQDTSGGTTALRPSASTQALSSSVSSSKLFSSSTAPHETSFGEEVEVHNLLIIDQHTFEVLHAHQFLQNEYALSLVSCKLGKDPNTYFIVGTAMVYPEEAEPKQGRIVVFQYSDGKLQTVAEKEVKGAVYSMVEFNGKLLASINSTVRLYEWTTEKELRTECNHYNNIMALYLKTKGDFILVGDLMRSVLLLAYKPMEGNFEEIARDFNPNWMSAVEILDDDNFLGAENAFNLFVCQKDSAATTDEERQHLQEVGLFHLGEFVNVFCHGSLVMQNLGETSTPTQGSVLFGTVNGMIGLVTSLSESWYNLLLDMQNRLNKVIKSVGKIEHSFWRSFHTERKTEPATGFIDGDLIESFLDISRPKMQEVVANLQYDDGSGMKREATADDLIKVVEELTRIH
Chain of CDK12–cyclin K (Q9NYV4 713-1052): as the sequence (Q9NYV4 713-1052 K965R) above, with R253K counted along it
Chain of CDK12–cyclin K (O75909 1-267 partner limits assumed): as the sequence (O75909 1-267 partner) above

EC50 (CDK12–cyclin K and DDB1; Supplementary Table 2, read-out: TR-FRET EC50 TR-FRET): 17.6 nM | TR-FRET signal at compound concentration 0.468 nM (CDK12–cyclin K and DDB1; raw replicate titration data): 0.3438 and 0.3184 and 0.1924 and 0.2024 | TR-FRET signal at compound concentration 0.468 nM (CDK12–cyclin K and DDB1; raw titration data): 0.3438 and 0.3184 and 0.1924 and 0.2024 | TR-FRET signal at compound concentration 2.16 nM (CDK12–cyclin K and DDB1; raw replicate titration data): 0.4192 and 0.3926 and 0.2807 and 0.3027 | TR-FRET signal at compound concentration 2.16 nM (CDK12–cyclin K and DDB1; raw titration data): 0.4192 and 0.3926 and 0.2807 and 0.3027 | TR-FRET signal at compound concentration 3.6 nM (CDK12–cyclin K and DDB1; raw replicate titration data): 0.579 and 0.5213 and 0.4737 and 0.5178 | TR-FRET signal at compound concentration 3.6 nM (CDK12–cyclin K and DDB1; raw titration data): 0.579 and 0.5213 and 0.4737 and 0.5178 | TR-FRET signal at compound concentration 7.92001 nM (CDK12–cyclin K and DDB1; raw replicate titration data): 0.9688 and 0.8489 and 0.8819 and 0.9925 | TR-FRET signal at compound concentration 7.92001 nM (CDK12–cyclin K and DDB1; raw titration data): 0.9688 and 0.8489 and 0.8819 and 0.9925 | TR-FRET signal at compound concentration 15.84 nM (CDK12–cyclin K and DDB1; raw replicate titration data): 1.662 and 1.49 and 2.462 and 1.9374 | TR-FRET signal at compound concentration 15.84 nM (CDK12–cyclin K and DDB1; raw titration data): 1.662 and 1.49 and 2.462 and 1.9374 | TR-FRET signal at compound concentration 30.96 nM (CDK12–cyclin K and DDB1; raw replicate titration data): 3.334 and 2.673 and 3.406 and 3.32 | TR-FRET signal at compound concentration 30.96 nM (CDK12–cyclin K and DDB1; raw titration data): 3.334 and 2.673 and 3.406 and 3.32 | TR-FRET signal at compound concentration 62.6401 nM (CDK12–cyclin K and DDB1; raw replicate titration data): 4.043 and 3.673 and 3.819 and 3.799 | TR-FRET signal at compound concentration 62.6401 nM (CDK12–cyclin K and DDB1; raw titration data): 4.043 and 3.673 and 3.819 and 3.799 | TR-FRET signal at compound concentration 125.28 nM (CDK12–cyclin K and DDB1; raw replicate titration data): 4.112 and 3.943 and 3.866 and 3.944 | TR-FRET signal at compound concentration 125.28 nM (CDK12–cyclin K and DDB1; raw titration data): 4.112 and 3.943 and 3.866 and 3.944 | TR-FRET signal at compound concentration 244.8 nM (CDK12–cyclin K and DDB1; raw replicate titration data): 4.2103 and 4.005 and 3.909 and 3.827 | TR-FRET signal at compound concentration 244.8 nM (CDK12–cyclin K and DDB1; raw titration data): 4.2103 and 4.005 and 3.909 and 3.827 | TR-FRET signal at compound concentration 993.601 nM (CDK12–cyclin K and DDB1; raw replicate titration data): 4.121 and 4.04 and 3.857 and 3.873 | TR-FRET signal at compound concentration 993.601 nM (CDK12–cyclin K and DDB1; raw titration data): 4.121 and 4.04 and 3.857 and 3.873 | TR-FRET signal at compound concentration 2001.6 nM (CDK12–cyclin K and DDB1; raw replicate titration data): 4.101 and 3.97 and 3.793 and 3.647 | TR-FRET signal at compound concentration 2001.6 nM (CDK12–cyclin K and DDB1; raw titration data): 4.101 and 3.97 and 3.793 and 3.647 | EC50 (CDK12–cyclin K and DDB1; in vitro complex formation, 50 nM CDK12–cyclin K, 100 nM DDB1, text and figures, read-out: TR-FRET EC50): 18 ± 1 nM | IC50 (CDK9–cyclin T; Supplementary Table 2, read-out: Lanthascreen IC50 [nM] CDK9): 5 nM | Lanthascreen TR-FRET signal (raw ratio), sheet CDK9 (CDK9–cyclin T; compound 1.02544 nM): 0.01641 and 0.01302 | Lanthascreen TR-FRET signal (raw ratio), sheet CDK9 (CDK9–cyclin T; compound 3.15521 nM): 0.01102 and 0.01312 | Lanthascreen TR-FRET signal (raw ratio), sheet CDK9 (CDK9–cyclin T; compound 9.46563 nM): 0.008363 and 0.009049 | Lanthascreen TR-FRET signal (raw ratio), sheet CDK9 (CDK9–cyclin T; compound 31.5521 nM): 0.005358 and 0.007058 | Lanthascreen TR-FRET signal (raw ratio), sheet CDK9 (CDK9–cyclin T; compound 99.3891 nM): 0.003738 and 0.004042 | Lanthascreen TR-FRET signal (raw ratio), sheet CDK9 (CDK9–cyclin T; compound 315.521 nM): 0.003575 and 0.004296 | Lanthascreen TR-FRET signal (raw ratio), sheet CDK9 (CDK9–cyclin T; compound 10002 nM): 0.002963 and 0.00293 | IC50 (CDK12–cyclin K; Supplementary Table 2, read-out: Lanthascreen IC50 [nM] CDK12): 1 nM | Lanthascreen raw signal, sheet CDK12 (CDK12–cyclin K; compound 1.02544 nM): 0.01164 and 0.009885 | Lanthascreen raw signal, sheet CDK12 (CDK12–cyclin K; compound 3.15521 nM): 0.008674 and 0.009398 | Lanthascreen raw signal, sheet CDK12 (CDK12–cyclin K; compound 9.46563 nM): 0.007398 and 0.008542 | Lanthascreen raw signal, sheet CDK12 (CDK12–cyclin K; compound 31.5521 nM): 0.006709 and 0.008514 | Lanthascreen raw signal, sheet CDK12 (CDK12–cyclin K; compound 99.3891 nM): 0.005942 and 0.005764 | Lanthascreen raw signal, sheet CDK12 (CDK12–cyclin K; compound 315.521 nM): 0.005543 and 0.005183 | Lanthascreen raw signal, sheet CDK12 (CDK12–cyclin K; compound 3155.21 nM): 0.004896 and 0.004614 | Lanthascreen raw signal, sheet CDK12 (CDK12–cyclin K; compound 10002 nM): 0.00468 and 0.003424 | Lanthascreen signal, sheet CDK2 (CDK2–cyclin A; Compound 1.02544 nM): 0.009698 and 0.009238 | Lanthascreen signal, sheet CDK2 (CDK2–cyclin A; Compound 3.15521 nM): 0.009437 and 0.009539 | Lanthascreen signal, sheet CDK2 (CDK2–cyclin A; Compound 9.46563 nM): 0.008356 and 0.007045 | Lanthascreen signal, sheet CDK2 (CDK2–cyclin A; Compound 31.5521 nM): 0.006783 and 0.006389 | Lanthascreen signal, sheet CDK2 (CDK2–cyclin A; Compound 99.3891 nM): 0.003942 and 0.005883 | Lanthascreen signal, sheet CDK2 (CDK2–cyclin A; Compound 315.521 nM): 0.002917 and 0.004435 | Lanthascreen signal, sheet CDK2 (CDK2–cyclin A; Compound 3155.21 nM): 0.002797 and 0.003541 | Lanthascreen signal, sheet CDK2 (CDK2–cyclin A; Compound 10002 nM): 0.002382 and 0.002785 | IC50 (CDK2–cyclin A; Supplementary Table 2, read-out: Lanthascreen IC50 [nM] CDK2): 31 nM
SMILES: CC(C)n1cnc2c(NCc3ccc(-c4ccccn4)cc3)nc(N3CCCC[C@H]3CCO)nc21 [DS70]
CDK inhibitory selectivity, result in words (CDK12–cyclin K; Lanthascreen across CDK2/9/12): more pronounced pan-CDK engagement than CR8 | EC50 (HEK293T cells; Homo sapiens, HEK-293T, HEK293T viability, 72 h, compound alone, read-out: Cellular assays EC50): 265 nM | Toxicity rescue (HEK293T cells; MLN4924-mediated cytotoxicity rescue, 10 µM used where n.d.): 30%

DC50 [1]: > 10 µM | TR-FRET signal at compound concentration 4.68 nM (CDK12–cyclin K and DDB1; compound concentration 4.68 nM, raw replicate titration data): 0.2092 and 0.2185 | TR-FRET signal at compound concentration 21.6 nM (CDK12–cyclin K and DDB1; compound concentration 21.6 nM, raw replicate titration data): 0.2003 and 0.2155 | TR-FRET signal at compound concentration 36 nM (CDK12–cyclin K and DDB1; compound concentration 36 nM, raw replicate titration data): 0.2049 and 0.2158 | TR-FRET signal at compound concentration 79.2001 nM (CDK12–cyclin K and DDB1; compound concentration 79.2001 nM, raw replicate titration data): 0.208 and 0.2231 | TR-FRET signal at compound concentration 158.4 nM (CDK12–cyclin K and DDB1; compound concentration 158.4 nM, raw replicate titration data): 0.2009 and 0.2135 | TR-FRET signal at compound concentration 309.6 nM (CDK12–cyclin K and DDB1; compound concentration 309.6 nM, raw replicate titration data): 0.2037 and 0.2058 | TR-FRET signal at compound concentration 626.401 nM (CDK12–cyclin K and DDB1; compound concentration 626.401 nM, raw replicate titration data): 0.2061 and 0.2177 | TR-FRET signal at compound concentration 1252.8 nM (CDK12–cyclin K and DDB1; compound concentration 1252.8 nM, raw replicate titration data): 0.2168 and 0.2226 | TR-FRET signal at compound concentration 2448 nM (CDK12–cyclin K and DDB1; compound concentration 2448 nM, raw replicate titration data): 0.212 and 0.232 | TR-FRET signal at compound concentration 9936.01 nM (CDK12–cyclin K and DDB1; compound concentration 9936.01 nM, raw replicate titration data): 0.2386 and 0.258 | TR-FRET signal at compound concentration 20016 nM (CDK12–cyclin K and DDB1; compound concentration 20016 nM, raw replicate titration data): 0.2819 and 0.2859
SMILES: CCc1ccc2nc(Nc3cc(Cc4ccccc4)nc(N[C@H]4CC[C@H](O)CC4)n3)sc2c1 [GSK2250665A, reference compound]
